Laboratory results from article PMC5741663, “Antimicrobial peptide capsids of de novo design” (Nature Communications, 2017).
In brackets after ≈: the same amount, converted by molar mass. Read-outs that look alike come from different tables or passages of the source. Marks after values point to notes of the source that are not given here. Starred links: 1 amine or outer side, 2 acyl side, 3 side chain; linkers in the order of their positions; H or OH if unused. Positions of bridges follow the written chain, without caps; N, C: chain ends. Non-standard residues stand in square brackets, D forms with d. Residues, ends and D or L forms follow the SMILES beside them. Chains are numbered I, II in the order given. *: point of attachment. X1 = CC(=O)N[C@@H](CCCCN[*:3])C(=O)NCCC(=O)N[C@@H](CCCCN[*:2])C(=O)NCCC(=O)N[C@@H](CCCCN[*:1])C(N)=O; X2 = CC[C@H](C)CCCCC(=O)*; Orn = NCCC[C@H](N)C(=O)O; Dab = NCC[C@H](N)C(=O)O; βAla = NCCC(=O)O

Key:
Assay type in all cases: cell-based
[1] = tested on: K. pneumoniae (NCTC 5055)
Method: MICs were determined by broth microdilution on different bacteria according to the Clinical and Laboratory Standards Institute. […] The absorbance was measured after peptide addition at 600 nm using a Victor 2 plate reader (Perkin-Elmer). MICs were defined as the lowest peptide concentration after 24 h at 37 °C.

[2] = tested on: S. aureus (ATCC6538)
Method: (§1) MICs were determined by broth microdilution on different bacteria according to the Clinical and Laboratory Standards Institute. Typically, 100 μL of 0.5–1 × 10^6 CFU mL^–1 of each bacterium in Mueller Hinton media broth (Oxoid) were incubated in 96-well microtitre plates with 100 μL of serial two-fold dilutions of the peptides (from 100 to 0 μM) at 37 °C on a 3D orbital shaker. The absorbance was measured after peptide addition at 600 nm using a Victor 2 plate reader (Perkin-Elmer). MICs were defined as the lowest peptide concentration after 24 h at 37 °C.

[3] = tested on: B. subtilis (ATCC6633)
Method: as §1

[4] = tested on: E. coli (K12)
Method: as §1

[5] = tested on: E. faecalis (OG1X)
Method: as §1

[6] = tested on: P. aeruginosa (ATCC27853)
Method: as §1

[7] = tested on: S. enterica (ATCC700720)
Method: MICs were determined by broth microdilution on different bacteria according to the Clinical and Laboratory Standards Institute. […] The absorbance was measured after peptide addition at 600 nm using a Victor 2 plate reader (Perkin-Elmer).

[8] = tested on: Human erythrocytes; assay: Haemolysis assay; settings: 10% (vol/vol) human erythrocytes in PBS pH 7.2, 1 h at room temperature, absorbance 550 nm; triplicates
Method: Haemolysis was determined by incubating a 10% (vol/vol) suspension of human erythrocytes with peptides. Erythrocytes were rinsed four times in 10 mM phosphate buffer saline (PBS), pH 7.2, by repeated centrifugation and re-suspension (3 min at 3000×g). Erythrocytes were incubated at room temperature for 1 h in either deionised water (fully haemolysed control), PBS, or with peptide in PBS. After centrifugation at 10,000×g for 5 min, the supernatant was separated from the pellet, and the absorbance was measured at 550 nm. Absorbance of the suspension treated with deionised water defined complete haemolysis.

[9] = S. enterica (ATCC700720), Mueller Hinton broth, 0.5–1 × 10^6 CFU mL–1, 24 h at 37 °C, absorbance 600 nm, total peptide concentration, triplicates

Question: `CC[C@H](C)CCCCC(=O)N[C@@H](CCN)C(=O)N[C@H](C(=O)N[C@@H](CCN)C(=O)N[C@H]1CCNC(=O)[C@H]([C@@H](C)O)NC(=O)[C@H](CCN)NC(=O)[C@H](CCN)NC(=O)[C@H](CC(C)C)NC(=O)[C@@H](Cc2ccccc2)NC(=O)[C@H](CCN)NC1=O)[C@@H](C)O` [Polymyxin B] (X2-[Dab]T[Dab][Dab][Dab][dF]L[Dab][Dab]T; lactam 4-C (inferred); N-terminus assumed) was tested. Which Minimum inhibitory concentrations ([1]; K. pneumoniae (NCTC 5055), Mueller Hinton broth, 0.5–1 × 10^6 CFU mL–1, 24 h at 37 °C, absorbance 600 nm, total peptide concentration, triplicates) did it give?
Answer: <1 µM

Question: And the Minimum inhibitory concentrations ([2]; S. aureus (ATCC6538), Mueller Hinton broth, 0.5–1 × 10^6 CFU mL–1, 24 h at 37 °C, absorbance 600 nm, total peptide concentration, triplicates)?
Answer: <50 µM

Question: What about the Minimum inhibitory concentrations ([3]; B. subtilis (ATCC6633), Mueller Hinton broth, 0.5–1 × 10^6 CFU mL–1, 24 h at 37 °C, absorbance 600 nm, total peptide concentration, triplicates) of the same compound?
Answer: 1.5 µM (≈ 1.81 µg/mL)

Question: What about the Minimum inhibitory concentrations ([4]; E. coli (K12), Mueller Hinton broth, 0.5–1 × 10^6 CFU mL–1, 24 h at 37 °C, absorbance 600 nm, total peptide concentration, triplicates) of the same compound?
Answer: <1 µM

Question: And the Minimum inhibitory concentrations ([5]; E. faecalis (OG1X), Mueller Hinton broth, 0.5–1 × 10^6 CFU mL–1, 24 h at 37 °C, absorbance 600 nm, total peptide concentration, triplicates)?
Answer: >100 µM

Question: And the Minimum inhibitory concentrations ([6]; P. aeruginosa (ATCC27853), Mueller Hinton broth, 0.5–1 × 10^6 CFU mL–1, 24 h at 37 °C, absorbance 600 nm, total peptide concentration, triplicates)?
Answer: <1 µM

Question: What about the Minimum inhibitory concentrations [7, 9] of the same compound?
Answer: <1 µM

Question: With `CCCCCCCCCC(=O)N[C@@H](Cc1c[nH]c2ccccc12)C(=O)N[C@H](CC(N)=O)C(=O)N[C@@H](CC(=O)O)C(=O)N[C@@H]1C(=O)NCC(=O)N[C@@H](CCCN)C(=O)N[C@@H](CC(=O)O)C(=O)N[C@H](C)C(=O)N[C@@H](CC(=O)O)C(=O)NCC(=O)N[C@H](CO)C(=O)N[C@@H]([C@H](C)CC(=O)O)C(=O)N[C@@H](CC(=O)c2ccccc2N)C(=O)O[C@@H]1C` [Daptomycin] as the compound, how does the Minimum inhibitory concentrations ([2]; ATCC6538, 24 h) read?
Answer: <8 µM

Question: What about the Minimum inhibitory concentrations ([3]; ATCC6633, 24 h) of the same compound?
Answer: <8 µM

Question: And the Minimum inhibitory concentrations ([4]; K12, 24 h)?
Answer: >100 µM

Question: And the Minimum inhibitory concentrations ([5]; OG1X, 24 h)?
Answer: >100 µM

Question: What about the Minimum inhibitory concentrations ([6]; ATCC27853, 24 h) of the same compound?
Answer: >100 µM

Question: And the Minimum inhibitory concentrations [7, 9]?
Answer: >50 µM

Question: What about the “LC50, median (50%) cell death compared to untreated cells” value [8] of the same compound?
Answer: >250^d µM

Question: How did the Minimum inhibitory concentrations ([2]; ATCC6538, 24 h) turn out when `CC(C)C[C@@H]1NC(=O)[C@H](CCCN)NC(=O)[C@H](C(C)C)NC(=O)[C@@H]2CCCN2C(=O)[C@@H](Cc2ccccc2)NC(=O)[C@H](CC(C)C)NC(=O)[C@H](CCCN)NC(=O)[C@H](C(C)C)NC(=O)[C@@H]2CCCN2C(=O)[C@@H](Cc2ccccc2)NC1=O` [Gramicidin S] (cyclo(V[Orn]L[dF]PV[Orn]L[dF]P)) was run?
Answer: <20 µM

Question: What about the Minimum inhibitory concentrations ([3]; ATCC6633, 24 h) of the same compound?
Answer: >40 µM

Question: What about the Minimum inhibitory concentrations ([4]; K12, 24 h) of the same compound?
Answer: <20 µM

Question: What about the Minimum inhibitory concentrations ([6]; ATCC27853, 24 h) of the same compound?
Answer: >40 µM

Question: What about the Minimum inhibitory concentrations [7, 9] of the same compound?
Answer: <10 µM

Question: And the “LC50, median (50%) cell death compared to untreated cells” value [8]?
Answer: >20 µM

Question: How did the Minimum inhibitory concentrations ([1]; NCTC 5055, 24 h) turn out when “I: H-KIAKLKQKIQKLKAKIAKLKQ[βAla][βAla] / II: H-KIAKLKQKIQKLKAKIAKLKQ[βAla][βAla] / III: H-KIAKLKQKIQKLKAKIAKLKQ[βAla][βAla] (linker I:C-II:C-III:C via X1) [C 3 (+) strand]” was run?
Answer: >12 µM

Question: What about the Minimum inhibitory concentrations ([2]; ATCC6538, 24 h) of the same compound?
Answer: 50 µM

Question: What about the Minimum inhibitory concentrations ([3]; ATCC6633, 24 h) of the same compound?
Answer: 1.5 µM

Question: What about the Minimum inhibitory concentrations ([4]; K12, 24 h) of the same compound?
Answer: 1.5 µM

Question: What about the Minimum inhibitory concentrations ([5]; OG1X, 24 h) of the same compound?
Answer: 50 µM

Question: And the Minimum inhibitory concentrations ([6]; ATCC27853, 24 h)?
Answer: 3 µM

Question: What about the Minimum inhibitory concentrations ([7]; ATCC700720, 24 h) of the same compound?
Answer: 3 µM
